Experimental data published in US6177415A, “Bacteriohopanetetrol and related compounds useful for modulation of lipoxygenase activity and anti-inflammatory applications” (The United States of America as represented by the …, priority 1997, dated 2001).
Read-outs that look alike come from different tables or passages of the source.

Legend:
Prostaglandin H Synthase = molecular target: T1, Prostaglandin H Synthase (Ovis aries, UniProt P05979); experiment: Prostaglandin H synthase (cyclooxygenase) assay (oxygen consumption); type: biochemical
T1 construct: purchased Oxford Biomedical Research Co., Oxford, Mich
T1 sequence (P05979 25-600): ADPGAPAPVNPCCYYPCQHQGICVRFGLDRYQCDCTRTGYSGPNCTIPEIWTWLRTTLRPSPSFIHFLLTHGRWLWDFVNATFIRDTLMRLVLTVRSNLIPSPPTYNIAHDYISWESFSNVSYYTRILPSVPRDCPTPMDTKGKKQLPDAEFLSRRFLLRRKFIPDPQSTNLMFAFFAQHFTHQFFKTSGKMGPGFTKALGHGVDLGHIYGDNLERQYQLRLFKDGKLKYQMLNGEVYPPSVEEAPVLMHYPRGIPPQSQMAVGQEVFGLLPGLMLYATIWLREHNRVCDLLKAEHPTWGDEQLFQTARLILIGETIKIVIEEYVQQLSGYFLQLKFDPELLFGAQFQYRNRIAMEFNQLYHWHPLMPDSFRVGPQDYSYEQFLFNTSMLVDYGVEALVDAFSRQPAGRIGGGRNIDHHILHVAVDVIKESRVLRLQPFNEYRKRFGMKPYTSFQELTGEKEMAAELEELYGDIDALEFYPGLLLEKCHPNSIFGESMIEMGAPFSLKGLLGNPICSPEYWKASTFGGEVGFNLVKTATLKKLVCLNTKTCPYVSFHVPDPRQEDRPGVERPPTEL
Description: Prostaglandin H synthase was obtained from Oxford Biomedical Research Co., Oxford, Mich. The reaction mixture (1.80 ml) consisted of 0.5 mM phenol, 1 μM hematin, enzyme (3.75 μg in 5 μl), 25 μl of inhibitor dissolved in ethanol, and potassium phosphate buffer (0.1 M, pH 7.8), and was preincubated for 3 min. The reaction was started by injecting 15 μl of arachidonic acid dissolved in ethanol, yielding a final concentration of 100 μM arachidonic acid in the reaction vessel. The disappearance of dissolved oxygen was monitored as described in Example 2. The assay system was checked by measuring the inhibition in indomethacin, a known inhibitor of prostaglandin H synthase.

[1] = system: Arachidonic acid-induced inflammation (mouse ear); experiment: Topical anti-inflammatory test against arachidonic acid-induced inflammation (mouse ear swelling); type: in vivo, mouse (ICR, male); settings: for % Inhibition of swelling: 1 hr A.A.; for % Inhibition of swelling / Ear Thickness Measurement, Left Ear (No A.A.) / Ear Thickness Measurement, Right Ear (1 hr. A.A.) / Swelling (R - L): n = 5/group; for Ear Thickness Measurement, Left Ear (No A.A.) / Ear Thickness Measurement, Right Ear (1 hr. A.A.) / Swelling (R - L): mean ± SEM
Description: The anti-inflammatory studies were carried out utilizing a topical model with arachidonic acid as the inflammation-inducing compound. 15-LO initiates the metabolic pathway leading to the formation of the lipoxins by converting arachidonic acid to […] (15-HPETE). Lipoxins may share some of the bioactivity associated with leukotrienes, the end-product associated with the 5-LO arachidonic acid metabolic pathway. A solution of arachidonic acid was applied to the surface of a mouse ear with the test substance (THBH) […]. Ear swelling was measured after an additional 60 minutes as an index of inflammation. For all test procedures, % inhibition was calculated according to the formula
where Ic is the increase in ear thickness (mm) in control mice and It is the increase in ear thickness in treated mice (see Example 5).
Arachidonic acid (2 mg in 20 μl acetone:pyridine:water) in a ratio of 7:2:1) was applied topically to the anterior and posterior surfaces of the right ear of mice 30 min following similar application of hopanoid or control (20 μl). Swelling of the ear was then measured by a Dyer model micrometer gauge after 60 min as an index of inflammation. For all test procedures, % inhibition was calculated according to formula (1). Five mice/dose level of test substance were used with negative and positive control groups run concurrently. The positive control was indomethacin.

Human 5-LO = molecular target: T2, Human 5-LO (Homo sapiens, UniProt P09917); experiment: Assay of recombinant human 5-lipoxygenase (oxygen consumption); type: biochemical
T2 construct: purchased Oxford Biomedical Research Co., Oxford, Mich
T2 sequence (P09917 1-674): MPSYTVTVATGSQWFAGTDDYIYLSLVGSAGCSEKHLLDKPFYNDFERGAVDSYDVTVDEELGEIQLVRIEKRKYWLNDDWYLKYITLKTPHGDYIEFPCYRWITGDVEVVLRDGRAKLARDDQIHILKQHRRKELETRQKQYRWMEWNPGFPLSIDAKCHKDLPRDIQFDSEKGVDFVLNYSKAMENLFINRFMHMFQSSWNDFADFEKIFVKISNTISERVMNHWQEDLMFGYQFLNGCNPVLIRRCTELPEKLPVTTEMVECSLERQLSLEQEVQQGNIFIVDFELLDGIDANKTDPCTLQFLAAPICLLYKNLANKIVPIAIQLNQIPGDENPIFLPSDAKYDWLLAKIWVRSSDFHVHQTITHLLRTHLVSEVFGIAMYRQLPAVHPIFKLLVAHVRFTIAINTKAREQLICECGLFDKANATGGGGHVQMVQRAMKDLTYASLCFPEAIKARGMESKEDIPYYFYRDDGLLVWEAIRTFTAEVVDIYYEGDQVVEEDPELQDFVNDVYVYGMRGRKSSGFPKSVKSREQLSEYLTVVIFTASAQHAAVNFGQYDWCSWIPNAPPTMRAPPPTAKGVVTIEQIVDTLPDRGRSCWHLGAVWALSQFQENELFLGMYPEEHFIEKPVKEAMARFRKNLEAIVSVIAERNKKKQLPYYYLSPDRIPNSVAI
Description: The reaction mixture (1.80 ml) consisted of 0.25 mM CaCl2, 0.13 mM ATP, 7 μl of phosphatidylcholine (12 μg/2 ml ethanol), 25 μl of inhibitor dissolved in ethanol, and Tris-HCl buffer, 50 mM, pH 7.4, and preincubated for 3 min. The reaction was started by injecting 5 μl of arachidonic acid (3.8 mg/5 ml ethanol) yielding a final arachidonic acid concentration of 4.5 μM in the reaction mixture. The rate of disappearance of dissolved oxygen was monitored with an oxygen electrode at 37° C., as described in Example 2. The O2 concentration in an air-saturated aqueous solution at 37° C. was calculated to be 0.185 mM.

Soybean 15-LO = molecular target: T3, Soybean 15-LO (Glycine max, UniProt P08170); experiment: Assay of soybean 15-lipoxygenase (oxygen consumption, Clark oxygen electrode); type: biochemical
T3 construct: purchased Sigma Chemical Co. (St. Louis, Mo.) Type V
T3 sequence (P08170 1-839): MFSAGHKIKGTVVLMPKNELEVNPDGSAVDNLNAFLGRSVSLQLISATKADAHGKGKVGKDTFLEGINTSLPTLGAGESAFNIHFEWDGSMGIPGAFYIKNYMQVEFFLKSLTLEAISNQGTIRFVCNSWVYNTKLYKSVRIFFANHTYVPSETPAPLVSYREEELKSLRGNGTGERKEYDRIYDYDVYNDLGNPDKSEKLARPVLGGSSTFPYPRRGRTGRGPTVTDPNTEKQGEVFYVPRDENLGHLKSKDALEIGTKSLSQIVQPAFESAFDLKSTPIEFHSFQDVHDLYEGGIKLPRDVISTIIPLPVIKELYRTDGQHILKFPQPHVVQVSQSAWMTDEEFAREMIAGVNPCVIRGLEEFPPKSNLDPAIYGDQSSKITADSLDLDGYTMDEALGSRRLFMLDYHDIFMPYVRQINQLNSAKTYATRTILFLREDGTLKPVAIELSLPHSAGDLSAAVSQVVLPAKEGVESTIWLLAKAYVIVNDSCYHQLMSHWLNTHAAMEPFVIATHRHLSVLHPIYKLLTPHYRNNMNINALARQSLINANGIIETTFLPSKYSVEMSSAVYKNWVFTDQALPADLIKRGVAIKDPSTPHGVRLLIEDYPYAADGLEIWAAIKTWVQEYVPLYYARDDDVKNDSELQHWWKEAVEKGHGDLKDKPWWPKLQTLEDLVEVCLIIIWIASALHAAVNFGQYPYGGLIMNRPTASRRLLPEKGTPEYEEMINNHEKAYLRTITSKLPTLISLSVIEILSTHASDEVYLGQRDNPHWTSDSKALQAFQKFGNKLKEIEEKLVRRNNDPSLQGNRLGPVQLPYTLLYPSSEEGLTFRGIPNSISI
Description: Initial screening was carried out on three hopanoids isolated from Z. mobilis (FIGS. 1,b,c,d). These compounds were purified as described and screened for their ability to inhibit three enzymes known for their activity in the metabolism of arachidonic acid. These enzymes, soybean 15-lipoxygenase (15-LO), human 5-lipoxygenase (5-LO) and prostaglandin H synthase (Table I), are known to be inhibited by most non-steroidal anti-inflammatory drugs (Parthasarathy and Rankin. 1992. Prog. Lipid. Res. vol. 31, p. 127). Soybean 15-LO was inhibited by one of the hopanoids, tetrahydroxybacteriohopane (THBH), with an IC50 of about 10 μM. […] The two other natural hopanoid compounds, THBH-GA and THBH-Et, were also evaluated for their effect on soybean 15-LO.
Soybean 15 LO (Type V) was obtained from Sigma Chemical Co. (St. Louis, Mo.). The reaction mixture (1.8 ml) consisted of 0.1 M borate buffer, pH 9.0, 5 μl (0.5 μg, 315 units) of soybean 15-LO dissolved in borate buffer, and 25 μl of inhibitor dissolved in ethanol, and was preincubated for 3 min. The reaction was started by injecting 100 μl of substrate mixture (prepared fresh daily and consisting of 1.0 mg arachidonic acid sonicated in 2.3 ml 0.1 M borate buffer, pH 9.0) yielding a final concentration of 50.9 μM arachidonic acid in the reaction vessel. The rate of disappearance of dissolved oxygen was monitored with a Clark Oxygen Electrode (Yellow Springs Instruments, Yellow Springs, Ohio) with the temperature controlled at 25° C., according to the method described by Breton et al. (1993. Prostaalandins, Leucotrienes, and Fatty Acids. vol. 49, p. 929, herein incorporated by reference). The O2 concentration in an air-saturated aqueous solution at 25° C., was calculated to be 0.24 mM. The assay system was checked by measuring the inhibition of phenidone, a known inhibitor of soybean 15-LO. Each potential inhibitor was tested at each of the listed concentrations at least three times and enzyme activities presented are the means ± standard deviations, reported as relative activities (calculated assuming that the activity in the minus-inhibitor control=100). The actual activities of the controls (in units of μM O2 consumed/min/mg protein) are also presented as a footnote to Table I.

[2] = control = 100, read-out: Enzyme Activity (Relative ± S.D.)
[3] = 25 μM, control = 100, read-out: Enzyme Activity (Relative ± S.D.)
[4] = 50 μM, control = 100, read-out: Enzyme Activity (Relative ± S.D.)
[5] = read-out: Enzyme Activity (Relative ± S.D.)

Structure (SMILES): COc1ccc2c(c1)c(CC(=O)O)c(C)n2C(=O)c1ccc(Cl)cc1 [Indomethacin, indomethacin, reference compound]
- remaining activity at 2.4 µM (Prostaglandin H Synthase; 2.4 μM, control = 100, read-out: Enzyme Activity (Relative ± S.D.)): 7 ± 2%
- % Inhibition of swelling ([1]; 3 mg/ear): 56%
- Ear Thickness Measurement, Left Ear (No A.A.) ([1]; 3 mg/ear): 22.2 ± 0.5 × 0.01 mm
- Ear Thickness Measurement, Right Ear (1 hr. A.A.) ([1]; 3 mg/ear): 29.4 ± 1.5 × 0.01 mm
- Swelling (R - L) ([1]; 3 mg/ear): 7.2 ± 1.5 × 0.01 mm

Structure (SMILES): O=C1CCN(c2ccccc2)N1 [Phenidone, phenidone, reference compound]
- remaining activity at 25 µM (Human 5-LO; [2]): 55 ± 2%
- remaining activity at 25 µM (Soybean 15-LO; [3]): 34 ± 4%

Structure (SMILES): C[C@H](CC[C@@H](O)[C@@H](O)[C@@H](O)CO)[C@H]1CC[C@]2(C)[C@H]3CC[C@@H]4[C@@]5(C)CCCC(C)(C)[C@@H]5CC[C@@]4(C)[C@]3(C)CC[C@@H]12 [THBH, tetrahydroxybacteriohopane]
- remaining activity at 25 µM (Prostaglandin H Synthase; [3]): 102 ± 3%
- remaining activity at 50 µM (Prostaglandin H Synthase; [4]): 103 ± 2%
- inhibition of prostaglandin H synthase (in words) (Prostaglandin H Synthase; 25 or 50 μM): not significantly inhibited
- % Inhibition of swelling ([1]; 10 mg/ear): 41%
- Ear Thickness Measurement, Left Ear (No A.A.) ([1]; 10 mg/ear): 22.0 ± 0.7 × 0.01 mm
- Ear Thickness Measurement, Right Ear (1 hr. A.A.) ([1]; 10 mg/ear): 31.6 ± 1.5 × 0.01 mm
- Swelling (R - L) ([1]; 10 mg/ear): 9.6 ± 1.1 × 0.01 mm
- effect on arachidonic acid-caused swelling (in words) ([1]; mouse ear): significantly affects swelling caused by the application of arachidonic acid
- remaining activity at 25 µM (Human 5-LO; [2]): 98 ± 2%
- remaining activity at 50 µM (Human 5-LO; [4]): 97 ± 1%
- inhibition of human 5-LO (in words) (Human 5-LO; 25 or 50 μM): not significantly inhibited
- IC50 (Soybean 15-LO): ~10 µM
- selectivity for 15-LO over 5-LO and prostaglandin H synthase (in words) (Soybean 15-LO): selectively inhibits 15-LO without inhibiting either 5-LO or prostaglandin H synthase
- remaining activity at 6.75 µM (Soybean 15-LO; [5]): 68 ± 5%
- remaining activity at 12.5 µM (Soybean 15-LO; [5]): 48 ± 9%
- remaining activity at 25 µM (Soybean 15-LO; [5]): 15 ± 6%
- remaining activity at 50 µM (Soybean 15-LO; [5]): 4 ± 3%
- remaining activity at 100 µM (Soybean 15-LO; [5]): 11 ± 2%

Structure (SMILES): CC(=O)OCC(OC(C)=O)C(OC(C)=O)C(CCC(C)C1CCC2(C)C1CCC1(C)C2CCC2C3(C)CCCC(C)(C)C3CCC21C)OC(C)=O (stereo not shown) [THBH-Acet]
- inhibition or stimulation of soybean 15-LO (in words) (Soybean 15-LO): destroyed its ability to inhibit this 15-LO
- remaining activity at 25 µM (Soybean 15-LO; [5]): 89 ± 11%
- remaining activity at 50 µM (Soybean 15-LO; [5]): 114 ± 17%

Structure (SMILES): CC(CCC(O)C(O)C(O)COC1C(N)C(O)C(O)C1(O)CO)C1CCC2(C)C1CCC1(C)C2CCC2C3(C)CCCC(C)(C)C3CCC21C (stereo not shown) [THBH-Et, tetrahydroxybacteriohopane ether]
- inhibition or stimulation of soybean 15-LO (in words) (Soybean 15-LO): stimulated enzyme activity
- remaining activity at 25 µM (Soybean 15-LO; [5]): 151 ± 10%
- remaining activity at 50 µM (Soybean 15-LO; [5]): 250 ± 38%

Structure (SMILES): CC(CCC(O)C(O)C(O)COC1OC(CO)C(O)C(O)C1N)C1CCC2(C)C1CCC1(C)C2CCC2C3(C)CCCC(C)(C)C3CCC21C (stereo not shown) [THBH-GA, tetrahydroxybacteriohopane glucosamine]
- inhibition or stimulation of soybean 15-LO (in words) (Soybean 15-LO): stimulated enzyme activity
- remaining activity at 25 µM (Soybean 15-LO; [5]): 172 ± 24%
- remaining activity at 50 µM (Soybean 15-LO; [5]): 188 ± 14%
